Test results reported in US9302999B2, “Substituted triazoles as herbicides” (E. I. DU PONT DE NEMOURS AND COMPANY, priority 2012, dated 2016).

Tests used:
Type in all cases: in vivo
[1] = tested on: foxtail, green (green foxtail Setaria viridis); assay: Test F pre-/postemergence: foxtail, green; settings: Preemergence
Summary of the method: (§1)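 Visual response scores, 0 meaning no effect and 100 complete control, were assigned against untreated controls 14 to 21 days after treatment. Test chemicals in a surfactant-containing non-phytotoxic solvent were applied preemergence to seeded silt loam soil or postemergence to 2–18 cm plants in peat-based medium.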

[2] = tested on: pigweed, palmer (palmer pigweed, Amaranthus palmeri); assay: Test F pre-/postemergence: pigweed, palmer
Summary of the method: as §1

[3] = tested on: surinam grass (Brachiaria decumbens); assay: Test F pre-/postemergence: surinam grass; settings: Preemergence
Summary of the method: as §1

[4] = tested on: ragweed (common ragweed, Ambrosia elatior); assay: Test F pre-/postemergence: ragweed; settings: Preemergence
Summary of the method: as §1

[5] = 4 g ai/ha, scale 0 to 100, 0 no effect, 100 complete control
[6] = 8 g ai/ha, scale 0 to 100, 0 no effect, 100 complete control
[7] = 16 g ai/ha, scale 0 to 100 (0 no effect, 100 complete control)
[8] = 31 g ai/ha, scale 0 to 100 (0 no effect, 100 complete control)
[9] = Preemergence, 16 g ai/ha, scale 0 to 100 (0 no effect, 100 complete control)
[10] = Preemergence, 31 g ai/ha, scale 0 to 100 (0 no effect, 100 complete control)

Cc1nn(-c2ccc(C(F)(F)F)c(F)c2)nc1Cc1ccnc(C(F)(F)F)c1 [Compound 162]
Plant response rating, Foxtail, Green [1, 5]: 0
Plant response rating, Foxtail, Green [1, 6]: 15
Plant response rating, Foxtail, Green [1, 7]: 80
Plant response rating, Foxtail, Green [1, 8]: 100
Plant response rating, Foxtail, Green ([1]; 62 g ai/ha, scale 0 to 100): 100
Plant response rating, Pigweed, Palmer ([2]; Postemergence, 4 g ai/ha, scale 0 to 100): 70
Plant response rating, Pigweed, Palmer ([2]; Postemergence, 8 g ai/ha, scale 0 to 100): 70
Plant response rating, Pigweed, Palmer ([2]; Postemergence, 16 g ai/ha, scale 0 to 100): 80
Plant response rating, Pigweed, Palmer ([2]; Postemergence, 31 g ai/ha, scale 0 to 100): 90
Plant response rating, Pigweed, Palmer ([2]; Postemergence, 62 g ai/ha, scale 0 to 100): 90
Plant response rating, Pigweed, Palmer ([2]; Preemergence, 4 g ai/ha, scale 0 to 100, 0 no effect, 100 complete control): 0
Plant response rating, Pigweed, Palmer ([2]; Preemergence, 8 g ai/ha, scale 0 to 100, 0 no effect, 100 complete control): 25
Plant response rating, Pigweed, Palmer [2, 9]: 98
Plant response rating, Pigweed, Palmer [2, 10]: 100
Plant response rating, Surinam Grass [3, 5]: 0
Plant response rating, Surinam Grass [3, 6]: 0
Plant response rating, Ragweed [4, 5]: 0
Plant response rating, Ragweed [4, 6]: 0
Plant response rating, Ragweed [4, 7]: 0
Plant response rating, Ragweed [4, 8]: 70

CCCc1nn(-c2ccc(F)cc2)nc1Cc1ccnc(C(F)(F)F)c1 [Compound 153]
Plant response rating, Foxtail, Green [1, 7]: 50
Plant response rating, Foxtail, Green [1, 8]: 75
Plant response rating, Foxtail, Green ([1]; 62 g ai/ha, scale 0 to 100): 100
Plant response rating, Foxtail, Green ([1]; 125 g ai/ha, scale 0 to 100): 100
Plant response rating, Foxtail, Green ([1]; 250 g ai/ha, scale 0 to 100): 100
Plant response rating, Pigweed, Palmer [2, 9]: 98
Plant response rating, Pigweed, Palmer [2, 10]: 100
Plant response rating, Pigweed, Palmer ([2]; Preemergence, 125 g ai/ha, scale 0 to 100): 100
Plant response rating, Pigweed, Palmer ([2]; Preemergence, 250 g ai/ha, scale 0 to 100): 100
Plant response rating, Surinam Grass [3, 7]: 0
Plant response rating, Surinam Grass [3, 8]: 5
Plant response rating, Surinam Grass ([3]; 125 g ai/ha, scale 0 to 100): 75
Plant response rating, Surinam Grass ([3]; 250 g ai/ha, scale 0 to 100): 98
Plant response rating, Ragweed [4, 7]: 5
Plant response rating, Ragweed [4, 8]: 5
Plant response rating, Ragweed ([4]; 125 g ai/ha, scale 0 to 100): 20
Plant response rating, Ragweed ([4]; 250 g ai/ha, scale 0 to 100): 80
